Test results taken from US12252524B2, “GIP/GLP1 co-agonist compounds” (Eli Lilly and Company, priority 2018, dated 2025).
Numbered stars: 1 amine (or outer) side, 2 acyl side, 3 side chain; on linkers, the order of the positions; unused ones are H or OH. Square brackets hold non-standard residues; d marks the D form. Side chains are listed from the residue outwards. Peptide text beside a SMILES is read from it. * marks the point of attachment. C20 diacid = O=C(O)CCCCCCCCCCCCCCCCCCC(=O)*; C18 diacid = O=C(O)CCCCCCCCCCCCCCCCC(=O)*; αMePhe(2-F) = C[C@](N)(Cc1ccccc1F)C(=O)O; γGlu = O=C(O)[C@H](CCC(=O)[*:2])N[*:1]; αMeL = CC(C)C[C@](C)(N)C(=O)O; Dab = NCC[C@H](N)C(=O)O; Dap = NC[C@H](N)C(=O)O; AEEA = NCCOCCOCC(=O)O; Aib = CC(C)(N)C(=O)O

Assays:
[1] = target: human GLP-1 receptor (GLP-1R) (Homo sapiens, UniProt P43220); experiment: cAMP pharmacological functional assay in presence of casein, hGLP-1R; type: cell-based; conditions: HEK293 cells expressing hGLP-1R, 0.1% Casein, geometric mean; read-out: hGLP1R cAMP Rel EC50 nM (SEM, n)
Chain of human GLP-1 receptor (GLP-1R) (P43220 24-463): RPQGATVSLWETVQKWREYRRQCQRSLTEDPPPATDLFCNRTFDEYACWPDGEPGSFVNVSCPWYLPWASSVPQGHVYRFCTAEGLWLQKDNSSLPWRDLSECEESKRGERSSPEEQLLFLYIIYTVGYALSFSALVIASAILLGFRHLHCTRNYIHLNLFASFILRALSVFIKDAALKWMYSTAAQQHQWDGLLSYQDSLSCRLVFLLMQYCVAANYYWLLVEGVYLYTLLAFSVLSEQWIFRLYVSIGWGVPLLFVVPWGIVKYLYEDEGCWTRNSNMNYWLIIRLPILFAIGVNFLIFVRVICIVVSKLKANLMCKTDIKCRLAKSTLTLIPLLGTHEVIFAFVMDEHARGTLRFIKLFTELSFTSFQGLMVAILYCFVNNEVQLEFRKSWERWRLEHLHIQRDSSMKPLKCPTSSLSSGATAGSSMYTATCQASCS

[2] = target: T1, human GIP receptor (Homo sapiens, UniProt P48546); experiment: [125I]-GIP binding (SPA), human GIP receptor; conditions: read-out: hGIPR Ki, nM (SEM, n)
T1 construct: expressed in transfected cells; crude membranes
T1 sequence (P48546 22-466): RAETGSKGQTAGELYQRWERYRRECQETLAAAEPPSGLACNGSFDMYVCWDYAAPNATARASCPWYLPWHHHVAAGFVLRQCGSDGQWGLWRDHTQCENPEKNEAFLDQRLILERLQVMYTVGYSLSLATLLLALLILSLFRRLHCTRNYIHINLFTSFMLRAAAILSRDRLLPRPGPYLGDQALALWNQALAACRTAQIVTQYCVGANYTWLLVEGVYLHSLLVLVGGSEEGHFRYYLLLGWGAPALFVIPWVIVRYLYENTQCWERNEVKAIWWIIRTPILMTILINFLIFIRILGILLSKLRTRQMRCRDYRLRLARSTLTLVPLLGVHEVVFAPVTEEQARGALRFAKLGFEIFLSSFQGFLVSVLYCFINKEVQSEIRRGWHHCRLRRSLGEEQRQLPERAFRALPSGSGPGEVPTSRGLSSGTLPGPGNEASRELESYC

[3] = target: human GLP-1R (Homo sapiens, UniProt P43220); experiment: [125I]-GLP-1 binding (SPA), human GLP-1 receptor; set-up: expressed in transfected cells; crude membranes; conditions: read-out: hGLP1R Ki, (nM) (SEM, n)
Chain of human GLP-1R (P43220 24-463): as the sequence (P43220 24-463) above
Procedure, shortened: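 Membranes: hypotonic lysis (50 mM Tris HCl, pH 7.5, protease inhibitors), Potter-Elvehjem homogenization, high-speed pellet (35000×g 1 h or 25000×g 30 min, 4° C.). Buffer: 25 mM HEPES pH 7.4, 2.5 mM CaCl2, 1 mM MgCl2. Four-parameter IC50 fit; Ki as geometric mean ± SEM.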

[4] = target: T2, human Gcg receptor (Homo sapiens, UniProt P47871); experiment: [125I]-Glucagon binding (SPA), human Gcg receptor; conditions: read-out: hGLcgR Ki, nM (SEM, n)
T2 construct: expressed in transfected cells; crude membranes
T2 sequence (P47871 26-477): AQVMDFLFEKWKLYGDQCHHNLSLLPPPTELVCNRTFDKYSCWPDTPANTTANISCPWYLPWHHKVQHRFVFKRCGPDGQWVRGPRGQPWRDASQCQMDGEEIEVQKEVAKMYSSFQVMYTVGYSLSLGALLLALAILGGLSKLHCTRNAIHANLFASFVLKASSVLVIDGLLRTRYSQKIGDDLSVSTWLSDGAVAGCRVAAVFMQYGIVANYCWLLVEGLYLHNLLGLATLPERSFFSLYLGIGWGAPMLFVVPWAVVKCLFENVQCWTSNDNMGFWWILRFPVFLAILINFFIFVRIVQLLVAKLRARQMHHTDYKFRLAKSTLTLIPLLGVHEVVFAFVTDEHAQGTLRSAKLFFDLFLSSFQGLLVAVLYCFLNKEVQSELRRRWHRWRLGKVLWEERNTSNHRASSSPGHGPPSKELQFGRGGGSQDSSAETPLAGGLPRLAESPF
Procedure, shortened: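 Cell pellets were lysed in hypotonic Tris buffer, pH 7.5, homogenized, and spun at low then high speed to give crude membranes. Ki was derived from the fitted IC50.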

[5] = target: T3, gastric inhibitory peptide receptor (GIPR) (Homo sapiens, UniProt P48546); experiment: cAMP pharmacological functional assay in presence of casein, hGIPR; type: cell-based; conditions: HEK293 cells expressing hGIPR, 0.1% Casein, geometric mean; read-out: hGIPR cAMP Rel EC50 nM (SEM, n)
T3 sequence (P48546 22-466): T1 sequence (P48546 22-466)

| Structure (SMILES) | EC50 [1] | Ki [2] | Ki [3] | Ki [4] | EC50 [5] |
| --- | --- | --- | --- | --- | --- |
| CC[C@H](C)[C@H](NC(=O)[C@H](CC(C)C)NC(=O)[C@H](Cc1ccc(O)cc1)NC(=O)[C@@H](CCC(=O)O)NC(=O)[C@@H](NC(=O)[C@H](Cc1ccccc1)NC(=O)[C@H](CCC(=O)O)NC(=O)C(C)(C)NC(=O)[C@H](CCC(N)=O)NC(=O)[C@H](C)NC(=O)[C@H](CCCCNC(=O)COCCOCCNC(=O)COCCOCCNC(=O)CC[C@H](NC(=O)CCCCCCCCCCCCCCCCCCC(=O)O)C(=O)O)NC(=O)[C@H](CCN)NC(=O)[C@H](CC(=O)O)NC(=O)[C@H](CC(C)C)NC(=O)[C@](C)(CC(C)C)NC(=O)[C@@H](NC(=O)[C@H](CO)NC(=O)[C@H](Cc1ccc(O)cc1)NC(=O)[C@H](CC(=O)O)NC(=O)[C@H](CO)NC(=O)[C@@H](NC(=O)[C@](C)(Cc1ccccc1F)NC(=O)[C@@H](NC(=O)CNC(=O)[C@H](CCC(=O)O)NC(=O)C(C)(C)NC(=O)[C@@H](N)Cc1ccc(O)cc1)[C@@H](C)O)[C@@H](C)O)[C@@H](C)CC)[C@@H](C)CC)C(=O)N[C@@H](CCC(=O)O)C(=O)NCC(=O)NCC(=O)N1CCC[C@H]1C(=O)N[C@@H](CO)C(=O)N[C@@H](CO)C(=O)NCC(=O)N[C@@H](C)C(=O)N1CCC[C@H]1C(=O)N1CCC[C@H]1C(=O)N1CCC[C@H]1C(=O)N[C@@H](CO)C(N)=O [Example 217] (H-Y[Aib]EGT[αMePhe(2-F)]TSDYSI[αMeL]LD[Dab]K([AEEA-AEEA-γGlu-C20 diacid])AQ[Aib]EFI[dE]YLIEGGPSSGAPPPS-NH2) | 0.0383 nM | 0.0376 nM | 2.02 nM | 516 nM | 0.0563 nM |
| CC[C@H](C)[C@H](NC(=O)[C@H](CC(C)C)NC(=O)[C@H](Cc1ccc(O)cc1)NC(=O)[C@@H](CCC(=O)O)NC(=O)[C@@H](NC(=O)[C@H](Cc1ccccc1)NC(=O)[C@H](CCC(=O)O)NC(=O)C(C)(C)NC(=O)[C@H](CCC(N)=O)NC(=O)[C@H](C)NC(=O)[C@H](CCCCNC(=O)COCCOCCNC(=O)COCCOCCNC(=O)CC[C@H](NC(=O)CCCCCCCCCCCCCCCCCCC(=O)O)C(=O)O)NC(=O)[C@H](CN)NC(=O)[C@H](CC(=O)O)NC(=O)[C@H](CC(C)C)NC(=O)[C@](C)(CC(C)C)NC(=O)[C@@H](NC(=O)[C@H](CO)NC(=O)[C@H](Cc1ccc(O)cc1)NC(=O)[C@H](CC(=O)O)NC(=O)[C@H](CO)NC(=O)[C@@H](NC(=O)[C@](C)(Cc1ccccc1F)NC(=O)[C@@H](NC(=O)CNC(=O)[C@H](CCC(=O)O)NC(=O)C(C)(C)NC(=O)[C@@H](N)Cc1ccc(O)cc1)[C@@H](C)O)[C@@H](C)O)[C@@H](C)CC)[C@@H](C)CC)C(=O)N[C@@H](CCC(=O)O)C(=O)NCC(=O)NCC(=O)N1CCC[C@H]1C(=O)N[C@@H](CO)C(=O)N[C@@H](CO)C(=O)NCC(=O)N[C@@H](C)C(=O)N1CCC[C@H]1C(=O)N1CCC[C@H]1C(=O)N1CCC[C@H]1C(=O)N[C@@H](CO)C(N)=O [Example 218] (H-Y[Aib]EGT[αMePhe(2-F)]TSDYSI[αMeL]LD[Dap]K([AEEA-AEEA-γGlu-C20 diacid])AQ[Aib]EFI[dE]YLIEGGPSSGAPPPS-NH2) | 0.0423 nM | 0.0593 nM | 2.54 nM | 270 nM | 0.0413 nM |
| CC[C@H](C)[C@H](NC(=O)[C@H](CC(C)C)NC(=O)[C@H](Cc1ccc(O)cc1)NC(=O)[C@@H](CCC(=O)O)NC(=O)[C@@H](NC(=O)[C@H](Cc1ccccc1)NC(=O)[C@H](CCC(=O)O)NC(=O)C(C)(C)NC(=O)[C@H](CCC(N)=O)NC(=O)[C@H](C)NC(=O)[C@H](CCCCNC(=O)COCCOCCNC(=O)COCCOCCNC(=O)CC[C@H](NC(=O)CCCCCCCCCCCCCCCCC(=O)O)C(=O)O)NC(=O)[C@H](CCC(=O)O)NC(=O)[C@H](CC(=O)O)NC(=O)[C@H](CC(C)C)NC(=O)[C@](C)(CC(C)C)NC(=O)[C@@H](NC(=O)[C@H](CO)NC(=O)[C@H](Cc1ccc(O)cc1)NC(=O)[C@H](CC(=O)O)NC(=O)[C@H](CO)NC(=O)[C@@H](NC(=O)[C@](C)(Cc1ccccc1F)NC(=O)[C@@H](NC(=O)CNC(=O)[C@H](CCC(=O)O)NC(=O)C(C)(C)NC(=O)[C@@H](N)Cc1ccc(O)cc1)[C@@H](C)O)[C@@H](C)O)[C@@H](C)CC)[C@@H](C)CC)C(=O)N[C@@H](CCC(=O)O)C(=O)NCC(=O)NCC(=O)N1CCC[C@H]1C(=O)N[C@@H](CO)C(=O)N[C@@H](CO)C(=O)NCC(N)=O [Example 219] (H-Y[Aib]EGT[αMePhe(2-F)]TSDYSI[αMeL]LDEK([AEEA-AEEA-γGlu-C18 diacid])AQ[Aib]EFI[dE]YLIEGGPSSG-NH2) | 0.0403 nM | 0.0689 nM | 2.01 nM | 373 nM | 0.0341 nM |
| CC[C@H](C)[C@H](NC(=O)[C@H](CC(C)C)NC(=O)[C@H](Cc1ccc(O)cc1)NC(=O)[C@@H](CCC(=O)O)NC(=O)[C@@H](NC(=O)[C@H](Cc1ccccc1)NC(=O)[C@H](CCC(=O)O)NC(=O)C(C)(C)NC(=O)[C@H](CCC(N)=O)NC(=O)[C@H](C)NC(=O)[C@H](CCCCNC(=O)COCCOCCNC(=O)COCCOCCNC(=O)CC[C@H](NC(=O)CCCCCCCCCCCCCCCCC(=O)O)C(=O)O)NC(=O)[C@H](CCC(=O)O)NC(=O)[C@H](CC(=O)O)NC(=O)[C@H](CC(C)C)NC(=O)[C@](C)(CC(C)C)NC(=O)[C@@H](NC(=O)[C@H](CO)NC(=O)[C@H](Cc1ccc(O)cc1)NC(=O)[C@H](CC(=O)O)NC(=O)[C@H](CO)NC(=O)[C@@H](NC(=O)[C@](C)(Cc1ccccc1F)NC(=O)[C@@H](NC(=O)CNC(=O)[C@H](CCC(=O)O)NC(=O)C(C)(C)NC(=O)[C@@H](N)Cc1ccc(O)cc1)[C@@H](C)O)[C@@H](C)O)[C@@H](C)CC)[C@@H](C)CC)C(=O)N[C@@H](CCC(=O)O)C(=O)NCC(=O)NCC(N)=O [Example 220] (H-Y[Aib]EGT[αMePhe(2-F)]TSDYSI[αMeL]LDEK([AEEA-AEEA-γGlu-C18 diacid])AQ[Aib]EFI[dE]YLIEGG-NH2; N-terminus assumed) | 0.0312 nM | 0.0919 nM | 2.71 nM | 377 nM | 0.0315 nM |
| CC[C@H](C)[C@H](NC(=O)[C@H](CC(C)C)NC(=O)[C@H](Cc1ccc(O)cc1)NC(=O)[C@@H](CCC(=O)O)NC(=O)[C@@H](NC(=O)[C@H](Cc1ccccc1)NC(=O)[C@H](CCC(=O)O)NC(=O)C(C)(C)NC(=O)[C@H](CCC(N)=O)NC(=O)[C@H](C)NC(=O)[C@H](CCCCNC(=O)COCCOCCNC(=O)COCCOCCNC(=O)CC[C@H](NC(=O)CCCCCCCCCCCCCCCCC(=O)O)C(=O)O)NC(=O)[C@H](CCC(=O)O)NC(=O)[C@H](CC(=O)O)NC(=O)[C@H](CC(C)C)NC(=O)[C@](C)(CC(C)C)NC(=O)[C@@H](NC(=O)[C@H](CO)NC(=O)[C@H](Cc1ccc(O)cc1)NC(=O)[C@H](CC(=O)O)NC(=O)[C@H](CO)NC(=O)[C@@H](NC(=O)[C@](C)(Cc1ccccc1F)NC(=O)[C@@H](NC(=O)CNC(=O)[C@H](CCC(=O)O)NC(=O)C(C)(C)NC(=O)[C@@H](N)Cc1ccc(O)cc1)[C@@H](C)O)[C@@H](C)O)[C@@H](C)CC)[C@@H](C)CC)C(=O)N[C@@H](CCC(=O)O)C(=O)NCC(=O)NCC(=O)N1CCC[C@H]1C(=O)N[C@@H](CO)C(=O)N[C@@H](CO)C(=O)NCC(=O)N[C@@H](C)C(=O)N1CCC[C@H]1C(=O)N1CCC[C@H]1C(=O)N1CCC[C@H]1C(=O)N[C@@H](CO)C(N)=O [Example 221] (H-Y[Aib]EGT[αMePhe(2-F)]TSDYSI[αMeL]LDEK([AEEA-AEEA-γGlu-C18 diacid])AQ[Aib]EFI[dE]YLIEGGPSSGAPPPS-NH2) | 0.057 nM | 0.0414 nM | 1.77 nM | 154 nM | 0.0445 nM |
